Data taken from paper PMC12090182, “Repurposing of the RIPK1-Selective Benzo[1,4]oxazepin-4-one Scaffold for the Development of a Type III LIMK1/2 Inhibitor” (ACS Chemical Biology, 2025).

System: MRC-9 cells
Experiment: Multiplex high-content viability assessment
Type: cell-based
Conditions: human fibroblast
Summary of the method: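 HEK293T and U2OS cells (DMEM) and MRC-9 fibroblasts (EMEM) exposed to compounds at 1 and 10 μM. Live-cell confocal imaging of cell shape and fluorescence before and at 12, 24 and 48 h. Normalized to 0.1% DMSO; biological duplicates with SEM.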

[1] = 1 µM, 0 h, biological replicate 1
[2] = 1 µM, 0 h, biological replicate 2
[3] = 1 µM, 12 h, biological replicate 1
[4] = 1 µM, 12 h, biological replicate 2
[5] = 1 µM, 24 h, biological replicate 1
[6] = 1 µM, 24 h, biological replicate 2
[7] = 1 µM, 48 h, biological replicate 1
[8] = 1 µM, 48 h, biological replicate 2
[9] = 10 µM, 0 h, biological replicate 1
[10] = 10 µM, 0 h, biological replicate 2
[11] = 10 µM, 12 h, biological replicate 1
[12] = 10 µM, 12 h, biological replicate 2
[13] = 10 µM, 24 h, biological replicate 1
[14] = 10 µM, 24 h, biological replicate 2
[15] = 10 µM, 48 h, biological replicate 1
[16] = 10 µM, 48 h, biological replicate 2

CC(C)C(=O)Nc1ncc(-c2cc(C(F)F)nn2-c2c(Cl)cccc2Cl)s1 [LIMKi3]
Cell count normalized to cells treated with DMSO control [1]: 1.034
Cell count per well [1]: 155
Population Fragmented Nuclei (%) [1]: 25.33%
Population Healthy Nuclei (%) [1]: 53.33%
Population Pyknosed Nuclei (%) [1]: 21.33%
Population apoptotic cell (%) [1]: 34.38%
Population cell that influence microtubule strucutre (%) [1]: 18.75%
Population with increased mitochondrial mass (%) [1]: 7.50%
Population with membrane disruption (%) [1]: 1.25%
Cell count normalized to cells treated with DMSO control [2]: 0.869
Cell count per well [2]: 155
Population Fragmented Nuclei (%) [2]: 31.13%
Population Healthy Nuclei (%) [2]: 41.06%
Population Pyknosed Nuclei (%) [2]: 27.81%
Population apoptotic cell (%) [2]: 38.10%
Population cell that influence microtubule strucutre (%) [2]: 48.39%
Population with increased mitochondrial mass (%) [2]: 11.29%
Population with membrane disruption (%) [2]: 8.06%
Cell count normalized to cells treated with DMSO control [3]: 0.9165
Cell count per well [3]: 138
Population Fragmented Nuclei (%) [3]: 20.00%
Population Healthy Nuclei (%) [3]: 63.70%
Population Pyknosed Nuclei (%) [3]: 16.30%
Population apoptotic cell (%) [3]: 22.73%
Population cell that influence microtubule strucutre (%) [3]: 25.58%
Population with increased mitochondrial mass (%) [3]: 5.81%
Population with membrane disruption (%) [3]: 1.16%
Cell count normalized to cells treated with DMSO control [4]: 0.8765
Cell count per well [4]: 146
Population Fragmented Nuclei (%) [4]: 30.94%
Population Healthy Nuclei (%) [4]: 44.60%
Population Pyknosed Nuclei (%) [4]: 24.46%
Population apoptotic cell (%) [4]: 35.29%
Population cell that influence microtubule strucutre (%) [4]: 75.81%
Population with increased mitochondrial mass (%) [4]: 11.29%
Population with membrane disruption (%) [4]: 20.97%
Cell count normalized to cells treated with DMSO control [5]: 0.9351
Cell count per well [5]: 141
Population Fragmented Nuclei (%) [5]: 15.83%
Population Healthy Nuclei (%) [5]: 69.06%
Population Pyknosed Nuclei (%) [5]: 15.11%
Population apoptotic cell (%) [5]: 33.33%
Population cell that influence microtubule strucutre (%) [5]: 33.33%
Population with increased mitochondrial mass (%) [5]: 7.29%
Population with membrane disruption (%) [5]: 0.00%
Cell count normalized to cells treated with DMSO control [6]: 0.8553
Cell count per well [6]: 141
Population Fragmented Nuclei (%) [6]: 38.85%
Population Healthy Nuclei (%) [6]: 41.73%
Population Pyknosed Nuclei (%) [6]: 19.42%
Population apoptotic cell (%) [6]: 40.74%
Population cell that influence microtubule strucutre (%) [6]: 62.07%
Population with increased mitochondrial mass (%) [6]: 12.07%
Population with membrane disruption (%) [6]: 20.69%
Cell count normalized to cells treated with DMSO control [7]: 0.9887
Cell count per well [7]: 150
Population Fragmented Nuclei (%) [7]: 26.21%
Population Healthy Nuclei (%) [7]: 62.07%
Population Pyknosed Nuclei (%) [7]: 11.72%
Population apoptotic cell (%) [7]: 52.94%
Population cell that influence microtubule strucutre (%) [7]: 31.11%
Population with increased mitochondrial mass (%) [7]: 6.67%
Population with membrane disruption (%) [7]: 0.00%
Cell count normalized to cells treated with DMSO control [8]: 0.8351
Cell count per well [8]: 136
Population Fragmented Nuclei (%) [8]: 42.54%
Population Healthy Nuclei (%) [8]: 45.52%
Population Pyknosed Nuclei (%) [8]: 11.94%
Population apoptotic cell (%) [8]: 37.50%
Population cell that influence microtubule strucutre (%) [8]: 77.05%
Population with increased mitochondrial mass (%) [8]: 14.75%
Population with membrane disruption (%) [8]: 9.84%
Cell count normalized to cells treated with DMSO control [9]: 1.054
Cell count per well [9]: 158
Population Fragmented Nuclei (%) [9]: 19.48%
Population Healthy Nuclei (%) [9]: 62.99%
Population Pyknosed Nuclei (%) [9]: 17.53%
Population apoptotic cell (%) [9]: 44.44%
Population cell that influence microtubule strucutre (%) [9]: 22.68%
Population with increased mitochondrial mass (%) [9]: 9.28%
Population with membrane disruption (%) [9]: 0.00%
Cell count normalized to cells treated with DMSO control [10]: 1.02
Cell count per well [10]: 182
Population Fragmented Nuclei (%) [10]: 18.39%
Population Healthy Nuclei (%) [10]: 59.77%
Population Pyknosed Nuclei (%) [10]: 21.84%
Population apoptotic cell (%) [10]: 50.00%
Population cell that influence microtubule strucutre (%) [10]: 38.46%
Population with increased mitochondrial mass (%) [10]: 6.73%
Population with membrane disruption (%) [10]: 4.81%
Cell count normalized to cells treated with DMSO control [11]: 1.2685
Cell count per well [11]: 191
Population Fragmented Nuclei (%) [11]: 21.91%
Population Healthy Nuclei (%) [11]: 61.24%
Population Pyknosed Nuclei (%) [11]: 16.85%
Population apoptotic cell (%) [11]: 40.00%
Population cell that influence microtubule strucutre (%) [11]: 92.66%
Population with increased mitochondrial mass (%) [11]: 15.60%
Population with membrane disruption (%) [11]: 0.92%
Cell count normalized to cells treated with DMSO control [12]: 1.111
Cell count per well [12]: 185
Population Fragmented Nuclei (%) [12]: 27.68%
Population Healthy Nuclei (%) [12]: 47.46%
Population Pyknosed Nuclei (%) [12]: 24.86%
Population apoptotic cell (%) [12]: 52.27%
Population cell that influence microtubule strucutre (%) [12]: 92.86%
Population with increased mitochondrial mass (%) [12]: 14.29%
Population with membrane disruption (%) [12]: 21.43%
Cell count normalized to cells treated with DMSO control [13]: 1.273
Cell count per well [13]: 192
Population Fragmented Nuclei (%) [13]: 24.02%
Population Healthy Nuclei (%) [13]: 64.25%
Population Pyknosed Nuclei (%) [13]: 11.73%
Population apoptotic cell (%) [13]: 42.86%
Population cell that influence microtubule strucutre (%) [13]: 93.04%
Population with increased mitochondrial mass (%) [13]: 32.17%
Population with membrane disruption (%) [13]: 1.74%
Cell count normalized to cells treated with DMSO control [14]: 1.116
Cell count per well [14]: 184
Population Fragmented Nuclei (%) [14]: 31.58%
Population Healthy Nuclei (%) [14]: 47.95%
Population Pyknosed Nuclei (%) [14]: 20.47%
Population apoptotic cell (%) [14]: 48.57%
Population cell that influence microtubule strucutre (%) [14]: 92.68%
Population with increased mitochondrial mass (%) [14]: 21.95%
Population with membrane disruption (%) [14]: 6.10%
Cell count normalized to cells treated with DMSO control [15]: 1.325
Cell count per well [15]: 201
Population Fragmented Nuclei (%) [15]: 25.53%
Population Healthy Nuclei (%) [15]: 63.83%
Population Pyknosed Nuclei (%) [15]: 10.64%
Population apoptotic cell (%) [15]: 70.00%
Population cell that influence microtubule strucutre (%) [15]: 98.33%
Population with increased mitochondrial mass (%) [15]: 42.50%
Population with membrane disruption (%) [15]: 0.83%
Cell count normalized to cells treated with DMSO control [16]: 1.216
Cell count per well [16]: 198
Population Fragmented Nuclei (%) [16]: 37.50%
Population Healthy Nuclei (%) [16]: 43.23%
Population Pyknosed Nuclei (%) [16]: 19.27%
Population apoptotic cell (%) [16]: 51.35%
Population cell that influence microtubule strucutre (%) [16]: 90.36%
Population with increased mitochondrial mass (%) [16]: 21.69%
Population with membrane disruption (%) [16]: 12.05%
